# Laboratory results as given in patent US20130259842A1, “STABLE REPROGRAMMED CELLS” (priority 2010, published 2013).
# Tested on: piPSC lines
# Test: Chemical reprogramming of stable intermediate cell lines
# Type: cell-based, mouse
# Procedure: A subset of piPS cell lines were treated with RepSox (E-616452) (25 μM), AZA (500 μM), or both for 48 hours. For 2i treatment, CHIR99021 (Stemgent) was used at 3 μM and PD0325901 (Stemgent) was used at 1 μM. Oct4::GFP+ colonies were scored 12 days after the beginning of chemical treatment. Treatments were performed in mES media containing FBS unless otherwise noted.
# 10× bright field image merged with Oct4::GFP. The concentration of DMSO equals 0.2%.
# piPSC or iPSC were plated on irradiated feeders or 0.1% gelatin, and grown in mES media treated with RepSox (E-616452) (25 μM), AZA (500 μM), or both for 48 hours. For 2i treatment, CHIR99021 (Stemgent) was used at 3 μM and PD0325901 (Stemgent) was used at 1 μM. Oct4::GFP+ colonies were scored 12 days after the beginning of chemical treatment. Treatments were performed in mES media containing FBS unless otherwise noted.
# To examine whether multiple piPSC lines could be further reprogrammed to a fully pluripotent state, piPSC were cultured in the presence of RepSox, a known inhibitor of Tgf-β signalling previously described to reprogram intermediate cells (Ichida et al., 2009), 2i-treatment, combined chemical inhibition of Mek/Erk and GSK3 signaling (Silva et at, 2008), or the DNA methyl-transferase inhibitor 5′AzaC.
smiles,measurement,setting,value
Cc1cccc(-c2[nH]ncc2-c2ccc3ncccc3n2)n1 [RepSox],reprogramming scored by presence of Oct4::GFP positive colonies,"25 μM RepSox, 2i = CHIR99021 3 μM + PD0325901 1 μM, exposed 48 hours, scored 12 days later",a subset of piPSC lines reprogram
same,further reprogramming to fully reprogrammed iPS cells as determined by the expression of Nanog,"25 μM for 48 hours, piPSC lines D, F, G, and E, Nanog RT-PCR at 96 hours",underwent further reprogramming to fully reprogrammed iPS cells
